In patent US20130172318A1, “ANTI-INFLAMMATORY AGENTS” (priority 2010, published 2013):

test system: not given; test: not given; settings: 37° C.; cited from earlier work

Row | Molecule | time completely stable in human serum
1 | (S)-3-(undec-10-enoyl)-tetrahydropyridin-2-one | at least 7 days

test system: MCP-1 induced migration of THP-1 cells; test: Inhibition of MCP-1 induced leukocyte migration (transwell, THP-1 cells); assay type: cell-based; settings: Homo sapiens, MCP-1 25 ng/ml, 2 hours 37° C., read-out: ED50 (concentration required to reduce the MCP-1-induced migration by 50%)
Procedure: In principle, this assay consists of two chambers separated by a porous membrane. The chemoattractant is placed in the lower compartment and the cells are placed in the upper compartment. After incubation for a period at 37° C. the cells move towards the chemoattractant, and the number of cells in the lower compartment is proportional to the chemoattractant activity (relative to a series of controls).
The THP-1 cell line (European Cell culture Collection) were used as the leukocyte cell population.
The following procedure is used for testing the invention compounds for MCP-1 induced leukocyte migration:
First, the cell suspension to be placed in the upper compartment is prepared. The THP-1 cells are pelleted by centrifugation (770×g; 4 mins) and washed with Geys Balanced Salt Solution with 1 mg/ml BSA (GBSS+BSA). This wash is then repeated, and the cells repelleted before being resuspended in a small volume of GBSS+BSA for counting, for example using a standard haemocytometer.
The volume of GBSS+BSA is then adjusted depending on the number of cells present so that the cells are at final density of 4.45×10^6 cells per ml of GBSS+BSA. This ensures that there are […] THP-1 cells in each 25 μl of the solution that will be placed in the upper chamber of the plate.
To test a single compound for its ability to inhibit MCP-1 induced migration, it is necessary to prepare two lots of cells. The suspension of THP-1 cells at 4.45×10^6 cells/ml is divided into two pots. To one pot the inhibitor under test is added at an appropriate final concentration, in an appropriate vehicle (for example at 1 μM in not more than 1% DMSO). To the second pot an equal volume of GBSS+BSA plus vehicle as appropriate (e.g. not more than 1% DMSO) is added to act as a control.
Next, the chemoattractant solution to be placed in the lower compartment is prepared. MCP-1 is diluted in GBSS+BSA to give a final concentration of 25 ng/ml. This is divided into two pots, as for the cell suspension. To one pot, the test compound is added to the same final concentration as was added to the cell suspension, while to the other pot an equal volume of GBSS+BSA plus vehicle as appropriate (e.g. not more than 1% DMSO) is added.
Note that the volume of liquid that needs to be added to make the addition of the text compound needs to be taken into account, when establishing the final concentration of MCP-1 in the solution for the lower compartment and the final concentration of cells in the upper compartment.
Once the chemoattractant solutions for the lower wells and cell solutions for the upper chambers have been prepared, the migration chamber should be assembled. Place 29 μl of the appropriate chemoattractant solution into the lower well of the chamber. Assays should be performed with at least triplicate determinations of each condition. Once all the lower chambers have been filled, apply the prous membrane to the chamber in accordance with the manufacturer's instructions. Finally, apply 25 μl of the appropriate cell solution to each upper chamber. A plastic lid is placed over the entire apparatus to prevent evaporation.
The assembled chamber is incubated at 37° C., 5% CO2, for 2 hours. A suspension of cells in GBSS+BSA is also incubated under identical conditions in a tube: these cells will be used to construct a standard curve for determining the number of cells that have migrated to the lower chamber under each condition.
At the end of the incubation, the liquid cell suspension is gently removed from the upper chamber, and 20 μl of ice-cold 20 mM EDTA in PBS is added to the upper chamber, and the apparatus is incubated at 4° C. for 15 mins. This procedure causes any cells adhering to the underside of the membrane to fall into the lower chamber.
After this incubation the filter is carefully flushed with GBSS+BSA to wash off the EDTA, and then the filter is removed. […]

Row | Molecule | EC50 [nM]
2 | Cc1cc(C)cc(C(=O)NC2CCCNC2=O)c1 (stereo not shown) [Reference Example 13, 3-(3′,5′-Dimethylbenzoylamino)tetrahydropyridin-2-one] | ≤ 100
3 | Cc1cc(C)cc(C(=O)NC2CCCCNC2=O)c1 (stereo not shown) [Reference Example 14, 3-(3′,5′-Dimethylbenzoylamino)azepan-2-one] | ≤ 100
4 | COc1ccc(C(=O)NC2CCCCNC2=O)cc1 (stereo not shown) [Reference Example 8, 3-(4′-Methoxybenzoylamino)azepan-2-one] | ≤ 100
5 | Cc1ccc(C(=O)NC2CCCCNC2=O)cc1 (stereo not shown) [Reference Example 4, 3-(4′-Methylbenzoylamino)azepan-2-one] | ≤ 100

Second part, the molecule after the results:

Row | EC50 [nM] | Molecule
6 | ≤ 100 | COc1ccc(C(=O)NC2CCCNC2=O)cc1 (stereo not shown) [Reference Example 7, 3-(4′-Methoxybenzoylamino)tetrahydropyridin-2-one]
7 | ≤ 100 | O=C(NC1CCCCNC1=O)c1ccc(Cl)cc1 (stereo not shown) [Reference Example 6, 3-(4′-Chlorobenzoylamino)azepan-2-one]
8 | ≤ 100 | O=C(NC1CCCCNC1=O)c1ccc(F)cc1 (stereo not shown) [Reference Example 10, 3-(4′-Fluorobenzoylamino)azepan-2-one]
9 | ≤ 100 | O=C(NC1CCCNC1=O)c1ccccc1 (stereo not shown) [Reference Example 1, 3-(Benzoylamino)tetrahydropyridin-2-one]
10 | ≤ 100 | O=C(NC1CCCNC1=O)c1ccc(Cl)cc1 (stereo not shown) [Reference Example 5, 3-(4′-Chlorobenzoylamino)tetrahydropyridin-2-one]
11 | ≤ 100 | Cc1ccc(C(=O)NC2CCCNC2=O)cc1 (stereo not shown) [Reference Example 3, 3-(4′-Methylbenzoylamino)tetrahydropyridin-2-one]
12 | ≤ 100 | O=C(NC1CCCCNC1=O)c1ccccc1 (stereo not shown) [Reference Example 2, 3-(Benzoylamino)azepan-2-one]
13 | ≤ 100 | O=C(NC1CCCNC1=O)c1ccc(F)cc1 (stereo not shown) [Reference Example 9, 3-(4′-Fluorobenzoylamino)tetrahydropyridin-2-one]

test system: chemokine-induced migration; test: not given; settings: cited from earlier work

Row | Molecule | BSCI potency/activity in words (comparative)
14 | CCCCCCCCCC=CC(=O)NC1CCCCNC1=O (stereo not shown) [dodec-2′,3′-enoyl-3-aminocaprolactam] | markedly lower potency
15 | (S)-3-(undec-10-enoyl)-tetrahydropyridin-2-one | considerably reduced potency
16 | CCCCCCCCCC(C)(C)CC(=O)NC1CCCCNC1=O (stereo not shown) [3′3′-dimethyldodecanoyl-3-aminocaprolactam] | no more potent

test system: not given; test: not given; settings: not given

Row | Molecule | melting point [°C]
17 | CC(C)(C)c1ccc(C(=O)N[C@@H]2CCCNC2=O)cc1 [Example 21, (R)-3-(4′-tert-Butylbenzoylamino)-tetrahydropyridin-2-one] | 193 to 194
18 | CCCCCCc1ccc(C(=O)N[C@H]2CCCNC2=O)cc1 [Example 23, (S)-3-(4′-Hexylbenzoylamino)-tetrahydropyridin-2-one] | 118 to 119
19 | CC(C)(C)c1ccc(C(=O)N[C@H]2CCCNC2=O)cc1 [Example 20, (S)-3-(4′-tert-Butylbenzoylamino)-tetrahydropyridin-2-one] | 195 to 196
20 | CC(C)(C)c1ccc(C(=O)N[C@H]2CCCCNC2=O)cc1 [Example 19, (S)-3-(4′-tert-Butylbenzoylamino)-azepan-2-one] | 204 to 205
21 | CCCCc1ccc(C(=O)N[C@H]2CCCNC2=O)cc1 [Example 17, (S)-3-(4′-Butylbenzoylamino)-tetrahydropyridin-2-one] | 117 to 118
22 | CCCCCCCCc1ccc(C(=O)N[C@H]2CCCNC2=O)cc1 [Example 26, (S)-3-(4′-Octylbenzoylamino)-tetrahydropyridin-2-one] | 122 to 123
23 | CCCCc1ccc(C(=O)N[C@@H]2CCCNC2=O)cc1 [Example 18, (R)-3-(4′-Butylbenzoylamino)-tetrahydropyridin-2-one] | 116 to 117
24 | CCCCCCc1ccc(C(=O)N[C@H]2CCCCNC2=O)cc1 [Example 22, (S)-3-(4′-Hexylbenzoylamino)-azepan-2-one] | 167 to 168
25 | CCc1ccc(C(=O)N[C@H]2CCCCNC2=O)cc1 [Example 14, (S)-3-(4′-Ethylbenzoylamino)-azepan-2-one] | 218 to 219
26 | CCCCCCc1ccc(C(=O)N[C@@H]2CCCNC2=O)cc1 [Example 24, (R)-3-(4′-Hexylbenzoylamino)-tetrahydropyridin-2-one] | 117 to 118
27 | CCCCCCCCc1ccc(C(=O)N[C@@H]2CCCNC2=O)cc1 [Example 27, (R)-3-(4′-Octylbenzoylamino)-tetrahydropyridin-2-one] | 122 to 123
28 | CCCCCCCCc1ccc(C(=O)N[C@H]2CCCCNC2=O)cc1 [Example 25, (S)-3-(4′-Octylbenzoylamino)-azepan-2-one] | 159 to 160
29 | CCCCc1ccc(C(=O)N[C@H]2CCCCNC2=O)cc1 [Example 16, (S)-3-(4′-Butylbenzoylamino)-azepan-2-one] | 183 to 184

The next lines start with the values.

Row | melting point [°C] | Molecule
30 | 202 to 204 | O=C(N[C@H]1CCCNC1=O)c1ccc(F)c(F)c1 [Example 11, (S)-3,4-difluoro-N-(2-oxopiperidin-3-yl)benzamide]
31 | 112 to 113 | CCc1ccc(C(=O)N[C@H]2CCCNC2=O)cc1 [Example 15, (S)-3-(4′-Ethylbenzoylamino)-tetrahydropyridin-2-one]
32 | 148 to 150 | O=C(N[C@H]1CCCNC1=O)c1cccc(C(F)(F)F)c1 [Example 5, (S)—N-(2-Oxopiperidin-3-yl)-3-(trifluoromethyl)benzamide]
33 | 166 to 168 | O=C(N[C@H]1CCCNC1=O)c1ccccc1F [Example 2, (S)-2-Fluoro-N-(2-oxopiperidin-3-yl)benzamide]
34 | 190 to 194 | O=C(N[C@H]1CCCNC1=O)c1c(F)cccc1F [Example 10, (S)-2,6-difluoro-N-(2-oxopiperidin-3-yl)benzamide]
35 | 164 to 166 | O=C(N[C@H]1CCCNC1=O)c1cccc(F)c1 [Example 1, (S)-3-Fluoro-N-(2-oxopiperidin-3-yl)benzamide]
36 | 198 to 199 | O=C(N[C@H]1CCCNC1=O)c1cc(F)cc(F)c1 [Example 12, (S)-3,5-difluoro-N-(2-oxopiperidin-3-yl)benzamide]
37 | 140 to 142 | O=C(N[C@H]1CCCNC1=O)c1cc(F)ccc1F [Example 9, (S)-2,5-difluoro-N-(2-oxopiperidin-3-yl)benzamide]
38 | 155 to 156 | O=C(N[C@H]1CCCNC1=O)c1ccccc1C(F)(F)F [Example 6, (S)—N-(2-Oxopiperidin-3-yl)-2-(trifluoromethyl)benzamide]
39 | 212 to 214 | O=C(N[C@H]1CCCNC1=O)c1ccc(C(F)(F)F)cc1 [Example 4, (S)—N-(2-Oxopiperidin-3-yl)-4-(trifluoromethyl)benzamide]
40 | 160 to 162 | O=C(N[C@H]1CCCNC1=O)c1cccc(F)c1F [Example 7, (S)-2,3-difluoro-N-(2-oxopiperidin-3-yl)benzamide]
41 | 140 to 141 | O=C(N[C@H]1CCCNC1=O)c1ccc(F)cc1F [Example 8, (S)-2,4-difluoro-N-(2-oxopiperidin-3-yl)benzamide]

test system: not given; test: not given; settings: after intravenous injection; cited from earlier work

Row | Molecule | half-life period of clearance from blood plasma
42 | c(DCys-DGln-DIle-DTrp-DLys-DGln-DLys-DPro-DAsp-DLeu-DCys)-NH2 [NR58-3.14.3] | less than 30 minutes

same assay, conditions: in vivo, po; cited from earlier work

Row | Molecule | oral bioavailability
43 | c(DCys-DGln-DIle-DTrp-DLys-DGln-DLys-DPro-DAsp-DLeu-DCys)-NH2 [NR58-3.14.3] | not orally bioavailable
